Test results: PubChem BioAssay (NCI)
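Growth conditions: 96-well plates. Treatment: test compound, 48 hours, 5 concentrations. Analysis: linear interpolation between bracketing concentrations; unreached endpoints set to highest concentration. GI50 = concentration required for 50% inhibition of growth. Definition used: TGI = concentration required for complete inhibition of growth.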

Columns and labels:
Test in all cases: NCI anticancer screen, dose series, 48 h
786-0 renal = tested on: 786-0 renal
A498 renal = tested on: A498 renal
A549 NSCLC = tested on: A549 NSCLC
ACHN renal = tested on: ACHN renal
BT-549 breast = tested on: BT-549 breast
CAKI-1 renal = tested on: CAKI-1 renal
CCRF-CEM leukemia = tested on: CCRF-CEM leukemia
COLO 205 colon = tested on: COLO 205 colon
DU-145 prostate = tested on: DU-145 prostate
EKVX NSCLC = tested on: EKVX NSCLC
HCC-2998 colon = tested on: HCC-2998 colon
HCT-116 colon = tested on: HCT-116 colon
HCT-15 colon = tested on: HCT-15 colon
HL-60(TB) leukemia = tested on: HL-60(TB) leukemia
HOP-62 NSCLC = tested on: HOP-62 NSCLC
HOP-92 NSCLC = tested on: HOP-92 NSCLC
HS 578T breast = tested on: HS 578T breast
HT29 colon = tested on: HT29 colon
IGROV1 ovarian = tested on: IGROV1 ovarian
K-562 leukemia = tested on: K-562 leukemia
KM12 colon = tested on: KM12 colon
LOX IMVI melanoma = tested on: LOX IMVI melanoma
M14 melanoma = tested on: M14 melanoma
MALME-3M melanoma = tested on: MALME-3M melanoma
MCF7 breast = tested on: MCF7 breast
MDA-MB-231 breast = tested on: MDA-MB-231 breast
MDA-MB-435 = tested on: MDA-MB-435
MOLT-4 leukemia = tested on: MOLT-4 leukemia
NCI-H226 lung = tested on: NCI-H226 lung
NCI-H23 lung = tested on: NCI-H23 lung
NCI-H460 lung = tested on: NCI-H460 lung
NCI-H522 lung = tested on: NCI-H522 lung
NCI/ADR-RES ovarian = tested on: NCI/ADR-RES ovarian
OVCAR-3 ovarian = tested on: OVCAR-3 ovarian
OVCAR-4 ovarian = tested on: OVCAR-4 ovarian
OVCAR-5 ovarian = tested on: OVCAR-5 ovarian
OVCAR-8 ovarian = tested on: OVCAR-8 ovarian
PC-3 prostate = tested on: PC-3 prostate
RPMI-8226 leukemia = tested on: RPMI-8226 leukemia
RXF 393 renal = tested on: RXF 393 renal
SF-268 CNS = tested on: SF-268 CNS
SF-295 CNS = tested on: SF-295 CNS
SF-539 CNS = tested on: SF-539 CNS
SK-MEL-2 melanoma = tested on: SK-MEL-2 melanoma
SK-MEL-28 melanoma = tested on: SK-MEL-28 melanoma
SK-MEL-5 melanoma = tested on: SK-MEL-5 melanoma
SK-OV-3 ovarian = tested on: SK-OV-3 ovarian
SN12C renal = tested on: SN12C renal
SNB-19 CNS = tested on: SNB-19 CNS
SNB-75 CNS = tested on: SNB-75 CNS
SR leukemia = tested on: SR leukemia
SW-620 colon = tested on: SW-620 colon
T-47D breast = tested on: T-47D breast
TK-10 renal = tested on: TK-10 renal
U251 CNS = tested on: U251 CNS
UACC-257 melanoma = tested on: UACC-257 melanoma
UACC-62 melanoma = tested on: UACC-62 melanoma
UO-31 renal = tested on: UO-31 renal

## O=c1[nH]c2ccccc2n1-c1n[nH]c2ccccc12
786-0 renal
  GI50: 46.6 µM
  TGI: > 100 µM
A498 renal
  GI50: 51.3 µM
  TGI: > 100 µM
A549 NSCLC
  GI50: 30.8 µM
  TGI: > 100 µM
ACHN renal
  GI50: 29.9 µM
  TGI: > 100 µM
BT-549 breast
  GI50: 30.5 µM
  TGI: > 100 µM
CAKI-1 renal
  GI50: 25.3 µM
  TGI: > 100 µM
CCRF-CEM leukemia
  GI50: 15.2 µM
  TGI: > 100 µM
COLO 205 colon
  GI50: 28.7 µM
  TGI: > 100 µM
DU-145 prostate
  GI50: 34 µM
  TGI: > 100 µM
EKVX NSCLC
  GI50: 29.7 µM
  TGI: > 100 µM
HCC-2998 colon
  GI50: 31.9 µM
  TGI: > 100 µM
HCT-116 colon
  GI50: 24.6 µM
  TGI: 67.5 µM
HCT-15 colon
  GI50: 31 µM
  TGI: > 100 µM
HL-60(TB) leukemia
  GI50: 12.1 µM
  TGI: 43.2 µM
HOP-62 NSCLC
  GI50: 33.2 µM
  TGI: > 100 µM
HOP-92 NSCLC
  GI50: 4.5 µM
  TGI: 58.2 µM
HS 578T breast
  GI50: 23 µM
  TGI: > 100 µM
HT29 colon
  GI50: 37.6 µM
  TGI: > 100 µM
IGROV1 ovarian
  GI50: 8.29 µM
  TGI: > 100 µM
K-562 leukemia
  GI50: 31.3 µM
  TGI: > 100 µM
KM12 colon
  GI50: 3.21 µM
  TGI: > 100 µM
LOX IMVI melanoma
  GI50: 17.4 µM
  TGI: 52.5 µM
M14 melanoma
  GI50: 29.2 µM
  TGI: 88.2 µM
MALME-3M melanoma
  GI50: 26.3 µM
  TGI: 82.9 µM
MCF7 breast
  GI50: 20.1 µM
  TGI: > 100 µM
MDA-MB-231 breast
  GI50: 22.9 µM
  TGI: > 100 µM
MDA-MB-435
  GI50: 23.7 µM
  TGI: 57.4 µM
MOLT-4 leukemia
  GI50: 17.3 µM
  TGI: 84.9 µM
NCI-H226 lung
  GI50: 18.9 µM
  TGI: 55.4 µM
NCI-H23 lung
  GI50: 38.5 µM
  TGI: > 100 µM
NCI-H460 lung
  GI50: 19.4 µM
  TGI: 93.5 µM
NCI-H522 lung
  GI50: 19.7 µM
  TGI: 48.7 µM
NCI/ADR-RES ovarian
  GI50: 30.3 µM
  TGI: > 100 µM
OVCAR-3 ovarian
  GI50: 27.5 µM
  TGI: > 100 µM
OVCAR-4 ovarian
  GI50: 41.3 µM
  TGI: > 100 µM
OVCAR-5 ovarian
  GI50: 33.6 µM
  TGI: > 100 µM
OVCAR-8 ovarian
  GI50: 35.3 µM
  TGI: > 100 µM
PC-3 prostate
  GI50: 18.1 µM
  TGI: > 100 µM
RPMI-8226 leukemia
  GI50: 17.6 µM
  TGI: 64.6 µM
RXF 393 renal
  GI50: 43.6 µM
  TGI: > 100 µM
SF-268 CNS
  GI50: 25.1 µM
  TGI: > 100 µM
SF-295 CNS
  GI50: 25.4 µM
  TGI: 59.8 µM
SF-539 CNS
  GI50: 56.9 µM
  TGI: > 100 µM
SK-MEL-2 melanoma
  GI50: 29.3 µM
  TGI: > 100 µM
SK-MEL-28 melanoma
  GI50: 38.8 µM
  TGI: > 100 µM
SK-MEL-5 melanoma
  GI50: 16.9 µM
  TGI: 35.9 µM
SK-OV-3 ovarian
  GI50: 73 µM
  TGI: > 100 µM
SN12C renal
  GI50: 37.2 µM
  TGI: > 100 µM
SNB-19 CNS
  GI50: 56.6 µM
  TGI: > 100 µM
SNB-75 CNS
  GI50: 41.9 µM
  TGI: > 100 µM
SR leukemia
  GI50: 18.1 µM
  TGI: 73.1 µM
SW-620 colon
  GI50: 39.4 µM
  TGI: > 100 µM
T-47D breast
  GI50: 29.5 µM
  TGI: 98.2 µM
TK-10 renal
  GI50: 40.7 µM
  TGI: > 100 µM
U251 CNS
  GI50: 31.3 µM
  TGI: > 100 µM
UACC-257 melanoma
  GI50: 42.1 µM
  TGI: > 100 µM
UACC-62 melanoma
  GI50: 33.6 µM
  TGI: 96.7 µM
UO-31 renal
  GI50: 12.5 µM
  TGI: > 100 µM

## Cc1cc(Cl)ccc1Nc1nc(C(F)(F)F)ccc1C(=O)N1CCN(c2cccc(Cl)c2)CC1
786-0 renal
  GI50: > 100 µM
  TGI: > 100 µM
A498 renal
  GI50: 37.1 µM
  TGI: > 100 µM
A549 NSCLC
  GI50: > 100 µM
  TGI: > 100 µM
ACHN renal
  GI50: > 100 µM
  TGI: > 100 µM
BT-549 breast
  GI50: > 100 µM
  TGI: > 100 µM
CAKI-1 renal
  GI50: 90.7 µM
  TGI: > 100 µM
CCRF-CEM leukemia
  GI50: > 100 µM
  TGI: > 100 µM
COLO 205 colon
  GI50: > 100 µM
  TGI: > 100 µM
DU-145 prostate
  GI50: > 100 µM
  TGI: > 100 µM
EKVX NSCLC
  GI50: > 100 µM
  TGI: > 100 µM
HCC-2998 colon
  GI50: 49.3 µM
  TGI: > 100 µM
HCT-116 colon
  GI50: 37.3 µM
  TGI: > 100 µM
HCT-15 colon
  GI50: > 100 µM
  TGI: > 100 µM
HL-60(TB) leukemia
  GI50: 69.6 µM
  TGI: > 100 µM
HOP-62 NSCLC
  GI50: > 100 µM
  TGI: > 100 µM
HOP-92 NSCLC
  GI50: 73.4 µM
  TGI: > 100 µM
HS 578T breast
  GI50: 3.89 µM
  TGI: > 100 µM
HT29 colon
  GI50: 46.1 µM
  TGI: > 100 µM
IGROV1 ovarian
  GI50: 1.78 µM
  TGI: > 100 µM
K-562 leukemia
  GI50: 19.7 µM
  TGI: > 100 µM
KM12 colon
  GI50: > 100 µM
  TGI: > 100 µM
LOX IMVI melanoma
  GI50: > 100 µM
  TGI: > 100 µM
M14 melanoma
  GI50: > 100 µM
  TGI: > 100 µM
MALME-3M melanoma
  GI50: > 100 µM
  TGI: > 100 µM
MCF7 breast
  GI50: 25.6 µM
  TGI: > 100 µM
MDA-MB-231 breast
  GI50: 11 µM
  TGI: > 100 µM
MDA-MB-435
  GI50: > 100 µM
  TGI: > 100 µM
MOLT-4 leukemia
  GI50: 19.6 µM
  TGI: > 100 µM
NCI-H226 lung
  GI50: > 100 µM
  TGI: > 100 µM
NCI-H23 lung
  GI50: > 100 µM
  TGI: > 100 µM
NCI-H460 lung
  GI50: > 100 µM
  TGI: > 100 µM
NCI-H522 lung
  GI50: > 100 µM
  TGI: > 100 µM
NCI/ADR-RES ovarian
  GI50: > 100 µM
  TGI: > 100 µM
OVCAR-3 ovarian
  GI50: 7.82 µM
  TGI: > 100 µM
OVCAR-4 ovarian
  GI50: 30 µM
  TGI: > 100 µM
OVCAR-5 ovarian
  GI50: > 100 µM
  TGI: > 100 µM
OVCAR-8 ovarian
  GI50: > 100 µM
  TGI: > 100 µM
PC-3 prostate
  GI50: 7.56 µM
  TGI: > 100 µM
RPMI-8226 leukemia
  GI50: 37.2 µM
  TGI: > 100 µM
RXF 393 renal
  GI50: > 100 µM
  TGI: > 100 µM
SF-268 CNS
  GI50: > 100 µM
  TGI: > 100 µM
SF-295 CNS
  GI50: 88.9 µM
  TGI: > 100 µM
SF-539 CNS
  GI50: > 100 µM
  TGI: > 100 µM
SK-MEL-2 melanoma
  GI50: > 100 µM
  TGI: > 100 µM
SK-MEL-28 melanoma
  GI50: > 100 µM
  TGI: > 100 µM
SK-MEL-5 melanoma
  GI50: 65.6 µM
  TGI: > 100 µM
SK-OV-3 ovarian
  GI50: > 100 µM
  TGI: > 100 µM
SN12C renal
  GI50: > 100 µM
  TGI: > 100 µM
SNB-19 CNS
  GI50: > 100 µM
  TGI: > 100 µM
SNB-75 CNS
  GI50: 1.11 µM
  TGI: 87.5 µM
SR leukemia
  GI50: > 100 µM
  TGI: > 100 µM
SW-620 colon
  GI50: > 100 µM
  TGI: > 100 µM
T-47D breast
  GI50: > 100 µM
  TGI: > 100 µM
TK-10 renal
  GI50: > 100 µM
  TGI: > 100 µM
U251 CNS
  GI50: > 100 µM
  TGI: > 100 µM
UACC-257 melanoma
  GI50: > 100 µM
  TGI: > 100 µM
UACC-62 melanoma
  GI50: > 100 µM
  TGI: > 100 µM
UO-31 renal
  GI50: 67.3 µM
  TGI: > 100 µM
